Assay results as given in a melting point compilation (Tetko et al.; mined from patent text by program, amines drawn as free bases though some values may be those of a salt).

| melting point | SMILES |
| --- | --- |
| 215 to 217 °C | Cc1c(-c2ccccc2)c(N2CC[C@H](N(C)C)C2)c2oc(N3CCOCC3)nc2c1C#N |
| 164 to 169 °C | CCCCCCCCCCCCCCOc1ccc(NC(=O)Nc2cccc(CBr)c2)cc1 |
| 166 to 196 °C | N#CCCNC(=O)c1cccc(-c2ccc3c(c2)N(c2ccc(Cl)c(Cl)c2)CC3)c1 |
| > 250 °C | CCc1nn2c(N3CCN(C)CC3)cc(N3CCOCC3)nc2c1S(=O)(=O)c1ccccc1 |
| 112 to 113 °C | O=C1CCCc2cc(Sc3ccccc3)cc(F)c21 |
| 132 to 133 °C | NC(=O)CC[C@H](NCc1ccccc1C(=O)O)C(=O)O |
| 135 to 137 °C | CC(C)(C)CCC(=N)NC(=S)Nc1ccc(Cl)cc1 |
| 138 to 140 °C | CC1(COC(=O)N2CCN(c3ccc(OC(F)(F)F)cc3)CC2)Cn2cc([N+](=O)[O-])nc2O1 (stereo not given) |
| 147 to 149 °C | CN(CCNc1ccc2c3c(c4c(OCc5ccccc5)ccc(OCc5ccccc5)c4cc13)NN2CCN(CCO)Cc1ccccc1)Cc1ccccc1 |
| 190 °C | CC(=O)Nc1c(C)c(C)c2c(c1C)CC(C)(C)O2 |
| 267 to 270 °C | Nc1cc(-c2c(-c3ccc(Cl)cc3)nc3ccc(N4CC5CNCC5C4)nn23)ccn1 (stereo not given) |
| 272 to 273 °C | C1=C(c2ccccc2)CCN(c2nsc3ccccc23)C1 |
| 109 °C | N#Cc1ccc(NC2CCCCC2)c([N+](=O)[O-])c1 |
| 138 to 140 °C | CC(C)(C)OC(=O)CC[C@@H](NC(=O)OCc1ccccc1)C(N)=O |
| 219 to 220 °C | CC(=S)NCC1CC(c2ccc(N3CCSCC3)c(F)c2)=NO1 (stereo not given) |
| 124 to 126 °C | CN(C)c1ccc(/C=C/c2ccccc2F)cc1 |
| 169 to 170 °C | CCCC1(COC)CCCSc2cc(/C=C/c3ccc(C(=O)O)cc3)ccc21 (stereo not given) |
| 123 to 125 °C | COc1ccc(C(=O)c2c(C)n(C(C)=O)c(=O)n2C(C)=O)cc1 |
| 190 to 191 °C | Cn1cnc(-c2ccc(NC(=C3C(=O)Oc4ccccc43)c3ccc(C4(N)CC4)cc3)cc2)c1 |
| 226 to 229 °C | CC(C)NC(=O)c1c(NC(=O)c2cc(C(F)(F)F)nn2-c2ncccc2Cl)c(C#N)cc2cn[nH]c12 |
| 158 to 160 °C | Cc1c(SCCN)ccnc1CSc1nc2ccccc2[nH]1 |
| 133 to 135 °C | O=C(Nc1cccc(O)c1)C(F)(F)F |
| 145 to 147 °C | COc1cc(OC)nc(-c2c(C)[nH]c3c(C)cccc23)n1 |
| 211 to 213 °C | Cc1cc2c(c(S(N)(=O)=O)n1)C(=O)OC2 |
| 133 to 134 °C | COc1ccc2cc(C3CCN(C[C@H](O)COc4cccc5oc(C6=NC(C)(C)CO6)cc45)CC3)ccc2c1 |
| 277 °C | O=C(O)CCc1cnn2c(=O)[nH]cnc12 |
| 156 °C | CC1(C)c2ccccc2N2Cc3cc(N=Nc4ccc([N+](=O)[O-])cc4)ccc3OC21C (stereo not given) |
| 154 to 162 °C | Cc1c(-c2ccc(O)cc2)n(Cc2ccc(OCCN3CCC(C)CC3)cc2)c2ccc(O)cc12 |

| melting point | SMILES |
| --- | --- |
| 76 to 78 °C | CCOC(=O)c1ccn(-c2ccc(OC(F)(F)F)cc2)n1 |
| 172 to 175 °C | O=C(c1ccccc1)c1ccc(CP(=O)(O)O)cc1 |
| 140 to 149 °C | CS(=O)(=O)c1ccc(-c2cnn(-c3cccc(Cl)c3)c(=O)c2SCc2ccco2)cc1 |
| 101 to 102 °C | C=C1CC(COc2cccc3cccnc23)(c2ccccc2)OC1=O (stereo not given) |
| 168 to 169 °C | CS(=O)(=O)c1ccc(NC(=O)c2ccccc2Br)cc1 |
| 107 to 110 °C | Cc1ccc(S(=O)(=O)OCC2Cc3ccc(O)cc3O2)cc1 (stereo not given) |
| 148 to 151 °C | CN(Cc1ccc[nH]1)C1CCCN(C(=O)c2ccc(Nc3nccc(Nc4ccc(F)cc4)n3)cc2)C1 (stereo not given) |
| 167 °C | COc1ccc(C(=NOC(C)=O)c2ccc(Cl)cc2)c(O)c1 |
| 120 °C | CC(C)C(F)(C(=O)O)c1ccc(Cl)cc1 (stereo not given) |
| 63 to 64 °C | CCC1(CC)c2ccccc2C(CC)(CC)N1OC(C)(C)C#N |
| 100 to 102 °C | CN1CC2CN(C)CC(C1)C2OC(=O)c1ccccc1 (stereo not given) |
| 76 to 78 °C | COP(=O)(CC(=O)[C@H](Cc1ccccc1)NC(=O)OC(C)(C)C)OC |
| 135 to 139 °C | O=C1c2cc(OCCCl)ccc2-c2ccc(OCCCl)cc21 |
| > 260 °C | CCOC(=O)c1cn(C)c2cnc3c(F)c(N4CCC(O)(c5cccc(C(F)(F)F)c5)CC4)ccc3c2c1=O |
| 84 °C | CCC(=O)Oc1ccc2c(=O)c(C(=O)CC)c(CC)oc2c1 |
| 202 to 203 °C | O=C(Nc1nc(-c2ccc(OC(F)F)cc2)cs1)C1CC1 |
| 121 to 125 °C | COc1ccc2oc(-c3nc4c(s3)NCCCC4)cc2c1 |
| 216 to 218 °C | Nc1nc(NCc2cccc(F)c2)nc2nc(-c3ccco3)nn12 |
| 230 to 232 °C | O=C(O)c1ccc(CSc2nnc(S)s2)cc1 |
| 207 °C | CC(C)[C@]1(CCc2ccc(O)cc2)CC(O)=C(Sc2sc3ccccc3c2C(C)(C)C)C(=O)O1 |
| 164 to 165 °C | O=C1CCCc2cc(NS(=O)(=O)c3ccccc3)ccc21 |
| 93 to 95 °C | O=[N+]([O-])c1cc(NCCO)ccc1NCC(F)(F)F |
| 208 to 210 °C | O=C1NC(=O)C(=Cc2ccc(N3CCC(NC[C@H](O)COc4ccccc4)CC3)cc2)S1 |
| > 350 °C | O=c1c2c[nH]c3c(c-2nn1-c1ccc(Cl)cc1)CCC3 |
| 98 to 102 °C | COc1nc2c(OCc3ccccc3)cccc2n1C |
| 184 °C | COc1ccc(-c2ccc(C(=O)Nc3cc4ncc(CN5CCCC5)cc4cc3Cl)cc2)cc1 |
| 113 to 116 °C | OCc1csc(=S)n1-c1ccc(F)c(F)c1F |

More lines, now with the values behind:

| SMILES | melting point |
| --- | --- |
| CC[C@H](C1CC1)n1cc(Cl)nc(N2CCc3cc(Br)cc(Cl)c32)c1=O | 126 to 127 °C |
| Cc1ccc(-c2cccn2-c2ccc(S(N)(=O)=O)cc2)cc1 | 183 to 184 °C |
| COC(=O)c1csc(C)c1NS(=O)(=O)NC(=O)Nc1nc(OC)cc(OC)n1 | 174 °C |
| O=C(NN1CCOCC1)c1ccc(O)c(Br)c1 | 216 to 218 °C |
| COC(=O)COc1c(C)cc(SCc2ccc(-c3ccc(C(F)(F)F)cn3)cc2)c2c1CCCO2 | 156 to 157 °C |
| O=C(CN1CCC(Cc2ccc(F)cc2)CC1)Nc1ccc(O)cc1 | 70 to 77 °C |
| Cc1cc(C=O)cc(Oc2nc(OCc3ccccc3)nc(OCc3ccccc3)c2C(C)C)c1 | 171 to 172 °C |
| Cc1cccc(-c2nc(C(C)C)[nH]c2-c2cccc(-c3cnn(C)c3)c2)n1 | 84 to 86 °C |
| CCOC(=O)c1cc2ccccc2nc1C | 70 to 72 °C |
| Cc1ccc(C(=O)c2ccc(Cc3ccc(N)cc3)n2C)c(C)c1 | 108 °C |
| O=C1NC(=O)C(=Cc2ccc(OCCN(Cc3ccccc3)c3nc4ccccc4s3)cc2)S1 | 185 to 188 °C |
| COc1ccc2c(c1OC)CCC(NC(=O)C(F)(F)F)C2=O (stereo not given) | 166 to 167 °C |
| CC(=O)N[C@@H](C)COC1CCN(c2nc3ccc(OCC(F)(F)F)cc3s2)CC1 | 129 to 131 °C |
| FC(F)c1nc2ccccc2n1-c1nc(Nc2ccccn2)nc(N2CCOCC2)n1 | 230 to 232 °C |
| Cc1nc(C)c(Cl)c(NCc2cccc(O)c2)n1 | 194 to 197 °C |
| CCC1(C2OC(C3OC(O)(CO)C(C)CC3C)CC2C)CCC(C2(C)CCC3(CC(O)C(C)C(C(C)C(OC)C(C)C(=O)O)O3)O2)O1 (stereo not given) | 78 to 80 °C |
| Cn1nc(C(=O)O)c(=O)n(C)c1=O | 220 to 223 °C |
| C=CCCNCc1nnc2n1-c1ccc(Cl)cc1C(c1ccccc1)=NC2 | 157 to 160 °C |
| COc1ccc(C=CC(=O)N2CCN(c3nc(N)c4cc(OC)c(OC)cc4n3)CC2)cc1OC | 140 °C |
| COc1ccc(OC)c(-c2nnc3ccc(Cl)nn23)c1 | 111 to 112 °C |
| CC(C)(C)NC(=O)OC1CCOC1=O (stereo not given) | 104 to 106 °C |
| CC(CSC(=O)c1ccccc1)C(=O)N1C(C(=O)O)CC2CCCCC21 (stereo not given) | 184 to 186 °C |
| Cc1cnc2c(c1)CCCC2=NO | 188 °C |

| SMILES | melting point |
| --- | --- |
| Cc1cccc(-c2ccc(O)cc2C=O)c1 | 148 to 150 °C |
| CCOC(=O)CCN1C(=O)C(NC(=O)OCc2ccccc2)N=C(c2ccccc2)c2ccccc21 (stereo not given) | 57 to 59 °C |
| C[C@H](NC(=O)C1(C)Oc2cc([N+](=O)[O-])ccc2NC1=O)C(=O)N[C@H](CCC(=O)O)C(=O)O (stereo not given in full) | 132 to 135 °C |
| Cc1ccccc1-c1c(NC(=O)Nc2c(C)cccc2C(C)C)c(=O)oc2ccc(Cl)cc12 | 237 to 238 °C |
| O=C(O)C(CCCCc1ccccc1)Oc1cccc2ccccc12 (stereo not given) | 91 to 94 °C |
| O=C(Oc1ccc(N2c3ccccc3S(=O)(=O)c3ccccc32)cc1)c1ccccc1 | 233 to 235 °C |
| O=C1c2ccncc2C(=O)c2c(F)ccc(F)c21 | 197 to 199 °C |
| CCOC(=O)c1cn(C2CC2)c2c(F)c(F)c(F)c(NCc3ccccc3)c2c1=O | 134 to 135 °C |
| Oc1ccc2oc(-c3ccc(F)cc3)nc2c1 | 166 to 168 °C |
| N#Cc1ccc2c(c1)nc(/C=C/c1ccccc1)n2-c1ccccn1 | 172 to 173 °C |
| COc1ccc(-c2cc3oc(=O)c4ccccc4c3nn2)cc1 | 270 °C |
| COc1nc(NC(=O)Nc2ccccc2OC)nc(N(CCC(=O)O)Cc2cccc(C)c2)n1 | 160 to 162 °C |
| COCCOc1cc2ncc(C#N)c(Nc3ccc(C)c(O)c3)c2cc1OC | 230 to 233 °C |
| Cc1cc2c(-c3cccc(C=O)c3)c(CC(=O)Nc3ccc(Cl)cc3C(F)(F)F)c(=O)oc2cc1Cl | 232 to 233 °C |
| CC(=O)N1CCC(C)(C)C2=C1CCc1cc(Cl)ccc12 | 126 to 127 °C |
| CC1CC(C)(C)c2cccc(NC(=O)c3cn(C)nc3C(F)F)c21 (stereo not given) | 131 to 134 °C |
| CC(=O)Nc1ccc(N2CCN(Cc3ncc(-c4ccccc4)o3)CC2)cc1 | 196 to 197 °C |
| N#Cc1ccc([C@H]2CC[C@H](CCC=O)CC2)cc1 | 30 °C |
| O=C(NC1CN2CCC1CC2)c1cccc2c1CCC2 (racemic) | 158 °C |
| CC[C@@H]1N(c2ccc(C#N)c(Cl)c2)C(=O)C[C@]1(C)O | 144 to 146 °C |
| Nc1ncc2c(n1)N(c1ccccc1)C(=O)N(c1c(Cl)cccc1Cl)C2 | > 300 °C |
| NC(=O)c1sc2nccc(N3CCN(c4ccccn4)CC3)c2c1N | 266 to 270 °C |
